Measurements reported in article PMC11752117 (Journal of Traditional and Complementary Medicine, 2024).
Where two headings read alike, the source gives them in different places.

Details: for concentration in plasma (molar) / concentration in plasma / concentration in lung tissue: 4 h after administration, respective extract 1000 mg/kg p.o.; for concentration in plasma / concentration in lung tissue: mean ± SD; for calculated concentration in lung tissue (molar): on the basis of lung water content approximately 80 % by weight
[1] = Day 1, infected hamsters, n = 4

Row | Compound | concentration in plasma (molar) (Day 1) [µM] | concentration in plasma [1] [ng/mL] | concentration in lung tissue (Day 1) [µg/g] | calculated concentration in lung tissue (molar) (Day 1) [µM] | concentration in plasma (molar) (Day 3) [µM] | concentration in lung tissue (Day 3) [µg/g] | concentration in plasma (Day 3) [ng/mL] | calculated concentration in lung tissue (molar) (Day 3) [µM] | concentration in plasma (molar) (Day 7) [µM] | concentration in lung tissue (Day 7) [µg/g] | concentration in plasma (Day 7) [ng/mL] | calculated concentration in lung tissue (molar) (Day 7) [µM] | average concentrations in lung tissue (range over sampling days, respective extract 1000 mg/kg/day p.o.) [µg/g]
1 | C=C1CC[C@@H]2[C@](C)(CO)[C@H](O)CC[C@@]2(C)[C@@H]1C/C=C1/C(=O)OC[C@H]1O [Andrographolide, andrographolide] | ~5.48 | 1921.3 ± 508.4 | 0.750 ± 0.206 | 1.72 | ~5.51 | 0.800 ± 0.144 | 1930.1 ± 257.7 | 1.83 | ~8.01 | 0.850 ± 0.181 | 2808.1 ± 547.4 | ~1.94 | 
2 | COc1cc(O)c(C(=O)[C@@H]2[C@H](CC=C(C)C)C(C)=CC[C@H]2c2ccccc2)c(O)c1 [Panduratin A, panduratin A] | ~4.21 | 1710.4 ± 284.3 | 0.186 ± 0.015 | 0.37 | ~7.27 | 0.262 ± 0.047 | 2954.1 ± 582.1 | 0.52 |  |  |  |  | 0.19 to 0.26
